Experimental data reported in PubChem BioAssay AID179 (DTP/NCI, 2004).
The source made the active and inactive calls.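 Rule for the calls: active = compounds giving half or more protection of infected cells from virus-caused growth loss, again on retest; inactive = the rest.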

Test system: CEM cells HIV-1 protection, formazan growth assay
Test: NCI AIDS Antiviral Assay
Settings: for IC50: measured here: growth of uninfected CEM cells
Summary of the method: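 Steps: treat uninfected and HIV-1-infected human CEM cells at five drug levels; quantify growth by soluble formazan; retest any compound reaching 50% protection; classify actives from the retest.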

Structure (SMILES) | EC50 | IC50 | outcome
Cc1c(C(=O)CC(=O)C(=O)Nc2c(C(C)C)cccc2C(C)C)[n+](=O)c2ccccc2n1[O-] | > 6.03 µM | > 6.03 µM | 
O=C1NC2OCC(O)C(O)C2O1 (stereo not drawn) | > 200 µM | > 200 µM | 
c1ccc2c(c1)c1ccccc1c1nccnc21 | > 200 µM | 69.2 µM | 
CN(C)C[C@@H]1C2C=CC(C2)[C@@H]1CO (stereo partly drawn) | > 490 µM | > 490 µM | 
COc1ccc(N=C2S/C(=N\C(=Nc3ccccc3)SCc3ccccc3)N(c3ccccc3)C2=Nc2ccc(OC)cc2)cc1 | > 200 µM | 120 µM | 
CC(=O)OC1C(O)COC(O[C@H]2CC[C@]34C[C@]35CC[C@]3(C)C([C@@]6(C)CC[C@@H](C(C)(C)O)O6)[C@@H](O)C[C@@]3(C)C5C[C@H](OC3OCC(O)C(O)C3O)[C@H]4C2(C)C)C1OC1OCC(O)C(O)C1O (stereo partly drawn) | > 200 µM | > 200 µM | 
CCOC(=O)[C@@H]1ON2O[C@@H](OC3CCCC3(c3ccccc3)c3ccccc3)C[C@H]3OC(=O)[C@@H]1C32 (stereo partly drawn) | > 200 µM | 34.7 µM | 
CCCc1cc(=O)oc2c3c(cc(OC(C)CC)c12)O[C@H](C)[C@@H](C)C3=O (stereo partly drawn) | > 60.3 µM | 14.1 µM | 
NC(CCCCCCCCCCP(=O)(O)O)C(=O)O (stereo not drawn) | > 200 µM | > 200 µM | 
O=c1[nH]c2ccccc2c(=O)n1/N=C/c1ccc(O)cc1 | > 200 µM | > 200 µM | 
C=CCN1C(=O)CS/C1=N/NC(=O)C(O)(c1ccccc1)c1ccccc1 | > 200 µM | 129 µM | 
COC(=O)c1cc(=O)nc(N/N=C/c2ccccc2O)s1 | > 85.1 µM | 57.5 µM | 
CN(CCO)CNC(=O)C1=C(O)C2(O)C(=O)C3=C(O)c4c(O)cccc4C(C)(O)C3CC2C(N(C)C)C1=O (stereo not drawn) | > 178 µM | > 178 µM | 
CC1OC(OC2C(OC(=O)[C@]34CCC(C)(C)CC3C3=CCC5[C@@]6(C)C[C@H](O)[C@H](OC7OC(COC8OC(CO)C(O)C(O)C8O)C(O)C(O)C7O)[C@@](C)(C(=O)O)C6CC[C@@]5(C)C3(C)CC4)OCC(O)C2O)C(O)C(O)C1OC1OCC(O)C(O)C1O (stereo partly drawn) | > 110 µM | > 110 µM | 
Nc1ccc(C(=O)N/C(=C\c2ccc3c(c2)OCO3)c2nc3ccccc3s2)cc1 |  |  | inactive
CCCCOC(=O)C(=O)C(CCC(=O)c1ccc(C)cc1)C(=O)C=C(C)C (stereo not drawn) | > 69.2 µM | > 69.2 µM | 
O=c1[nH]c(=O)n(C2COC(CO)C2O)cc1F (stereo not drawn) | > 200 µM | 6.03 µM | 
Cc1ccc(S(=O)(=O)Oc2coc(CO)cc2=O)cc1 | > 200 µM | 12.3 µM | 
Cc1nc2sccn2c1C(=O)N/N=C1\SCC(=O)N1C | > 427 µM | > 427 µM | 
CC1=CC=C2c3ccccc3C=CN2C(=O)C1 | > 200 µM | 89.1 µM | 
C=CCC(CCC(C)=O)(C(=O)OCC)C(=O)OCC | > 200 µM | > 200 µM | 

Structure (SMILES) | EC50 | IC50 | outcome
CC1(C)C2CC(=O)C1(C)C(OCc1ccccc1)C2Br (stereo not drawn) | > 200 µM | > 100 µM | 
CC1(C)C(=O)N=C(N)N1C(=O)OCc1ccccc1 | > 200 µM | > 200 µM | 
O=C(O)[C@@H]1CSC(c2ccncc2)N1 (stereo partly drawn) | > 200 µM | > 200 µM | 
NNC(=O)CSc1nc2ccccc2c(=O)n1N | > 200 µM | > 200 µM | 
CC(C)C(O)C(=O)C(Sc1ccccc1)C(C)C (stereo not drawn) | > 355 µM | 240 µM | 
CC(NC(=O)C(Cc1ccc(OC(=O)c2ccccc2)cc1)NC(=O)OC(C)(C)C)C(=O)NCC(=O)NC(Cc1ccccc1)NC(=O)OCc1ccccc1 (stereo not drawn) | > 200 µM | 110 µM | 
CCCCCCCCCCCCCCCCCCOP(=O)([O-])OC1CC[N+](C)(C)CC1 | > 204 µM | 1.91 µM | 
COC1OCC(SC(=O)c2ccccc2)C(O)C1O (stereo not drawn) | > 200 µM | 141 µM | 
CC(=O)OCC1OC(n2c3c(c(-c4ccc(C)cc4)c(C#N)c2=S)C(=O)CC(C)(C)C3)C(OC(C)=O)C(OC(C)=O)C1OC(C)=O (stereo not drawn) | > 200 µM | 16.6 µM | 
Cc1nc(=O)n2c(c1C(=O)Nc1ccc(Cl)cc1)NCC2 |  |  | inactive
Fc1cccc(Cl)c1C1SCc2nc3ccccc3n21 (stereo not drawn) | 0.0479 µM | 3.8 µM | 
CC1=NC(C)(CO)CO1 (stereo not drawn) | > 200 µM | > 200 µM | 
Cn1cc(N)cc1C(=O)Nc1cc(C(=O)Nc2ccc3cc(S(=O)(=O)O)cc(S(=O)(=O)O)c3c2)n(C)n1 | 18.2 µM | > 100 µM | 
CC1CC[P+](C)(Cc2ccccc2)C1 (mixture of isomers) | > 437 µM | 162 µM | 
COc1ccc(S(=O)(=O)O)cc1N=N/C(=N/Nc1cc(S(=O)(=O)O)ccc1OC)C(=O)Nc1ccccc1 |  |  | inactive
NC(=O)CSc1c2cc(O)ccc2nc2ccc(O)cc12 | > 200 µM | 36.3 µM | 
CCCn1c(SCC)c2cc3cc4ccccc4cc3cc2c1-c1nc(F)nc(F)n1 | > 30.9 µM | 22.4 µM | 
CC(=O)Oc1cc2c(c(=O)n1C)C(C)N(C)C2=O (stereo not drawn) | 53.7 µM | 309 µM | 
COc1ccc(CCCNC(=O)Cc2ccccc2CO)cc1OC | > 200 µM | > 200 µM | 
Cc1c(N2CCOCC2)nc2ccc(Cl)cc2c1-c1ccccc1 | > 4.27 µM | > 4.27 µM | 
COC(=O)CC(=O)/C(=C/C(C/C=C(\C(=O)CC(=O)OC)C(=O)OC)OC)C(=O)OC (stereo not drawn) | > 200 µM | > 200 µM | 

Structure (SMILES) | EC50 | IC50 | outcome
COc1ccc(C2C=C(c3ccc(C)cc3)N(c3ccc(OC)cc3[N+](=O)[O-])C3C(=O)OC(=O)C23)c(OC)c1 (stereo not drawn) | > 200 µM | 31.6 µM | 
O=c1c2[nH]cnc2n(-c2ccccc2)c(=S)n1-c1ccccc1 | > 200 µM | > 200 µM | 
C/C(CCN(C)C)=N/O |  |  | inactive
COc1ccc(-c2cc(-c3ccc(Cl)cc3)n(C3OC(CO)C(O)C(O)C3O)c(=S)c2C#N)cc1 (stereo not drawn) | > 200 µM | 7.76 µM | 
COc1ccccc1N1CCN(CCCNC(=O)c2cc(Cl)c(N)c(Cl)c2)CC1 | > 200 µM | 89.1 µM | 
CC[n+]1cnc(N)c2c(-c3ccc(Cl)cc3)cn(-c3ccc(C)cc3)c21 | > 200 µM | 12.3 µM | 
c1scc2c1COCCOCCOCCOCCOCCOC2 | > 724 µM | 646 µM | 
Cc1cc(-n2nnnc2-c2ccc([N+](=O)[O-])cc2)no1 | > 5.01 µM | 4.37 µM | 
CCCCCCCCCC=C(c1cc(Cl)c(O)c(C(=O)O)c1)c1cc(Cl)c(O)c(C(=O)O)c1 | 45.7 µM | 49 µM | 
O=C1c2ccccc2Sc2ccccc2N1CCCCN1CCN(c2ccc(F)cc2)CC1 | > 200 µM | > 200 µM | 
Cc1nc2c(=O)n(C)c(=O)n(C)c2nc1CCC(=O)O | > 200 µM | > 200 µM | 
CNS(=O)(=O)NNS(=O)(=O)c1cccc([N+](=O)[O-])c1 | > 83.2 µM | > 83.2 µM | 
CCCCCCSc1nc(COC(=O)NC)c(COC(=O)NC)n1C | > 200 µM | > 200 µM | 
CCC/C(Cl)=N/OC(=O)Nc1cc(C(F)(F)F)ccc1OC | > 200 µM | 3.39 µM | 
NC(=NCC(=O)O)c1ncn(C2OC(CO)C(O)C2O)n1 (stereo not drawn) |  |  | inactive
COc1ccc2c3csc4ccccc4c-3nc2c1 | > 200 µM | 0.427 µM | 
COc1ccc(CCc2ccccc2CC(=O)O)cc1 | > 933 µM | 589 µM | 
CCN(CC)c1ccc(C(=C2C=CC(=[N+](CC)CC)C=C2)c2ccc(N(CC)CC)cc2)cc1 |  |  | inactive
Cc1cc(NC(=O)NC/C(Cl)=C/Cl)c2ccccc2n1 | > 200 µM | 29.5 µM | 
Oc1cccc2cc(Br)cnc12 | > 20 µM | 5.01 µM | 
